Results reported in publication PMC11238337, “Crafting Stable Antibiotic Nanoparticles via Complex Coacervation of Colistin with Block Copolymers” (Biomacromolecules, 2024).

Assays:
[1] = test system: A. vinelandii (DSM2290); assay: Disk diffusion assay (DDA); assay type: cell-based; details: 3.0 μg colistin per disk, 24 h at 37 °C
Experimental: (§1) In the DDA, the susceptibility of Escherichia coli (DSM613), Serratia indica (NCIMB 8869), Pseudomonas fluorescens (DSM20030), A. vinelandii (DSM2290), and Bacillus subtilis (DSM10) was tested. Sterile filter disks (VWR) were impregnated (using an automatic pipette) with 3.0 μg of colistin from either colistin sulfate or colistin-C3Ms (at f+ = 0.50) in a concentration above the CMC (at 1.0 mg/mL) and dried under sterile air. Bacterial plates were prepared by freshly pouring bacterial medium until it set. Second, a layer of LB medium, that was premixed with 10 μL of bacteria from overnight cultures, was added. Then, the disks were added, and the plates were incubated for 24 h at 37 °C. The sizes of the inhibition zones were measured and averaged. Experiments were performed in triplicate. With the agar broth dilution testing, it was possible to determine the MIC50 values. LB liquid media in test tubes containing equal amounts of E. coli culture (10 μL of bacteria from overnight cultures to 5 mL of media) was mixed with either colistin or colistin-C3Ms with equal colistin for a concentration between 0.0 and 50 μg/mL. The test tubes were incubated for 24 h at 37 °C and their turbidity was measured with a McFarland turbidimeter. The agar broth dilution experiments were done in duplicate. To determine the MIC50 values, curves were averaged and then fitted with a sigmoid function.

[2] = test system: Escherichia coli (DSM613); assay: Disk diffusion assay (DDA); assay type: cell-based; details: 3.0 μg colistin per disk, 24 h at 37 °C, triplicate, averaged
Experimental: as §1

[3] = test system: Pseudomonas fluorescens (DSM20030); assay: Disk diffusion assay (DDA); assay type: cell-based; details: 3.0 μg colistin per disk, 24 h at 37 °C
Experimental: as §1

[4] = test system: Serratia indica (NCIMB 8869); assay: Disk diffusion assay (DDA); assay type: cell-based; details: 3.0 μg colistin per disk, 24 h at 37 °C
Experimental: as §1

[5] = test system: Bacillus subtilis (DSM10); assay: Disk diffusion assay (DDA), control strain; assay type: cell-based; details: 3.0 μg colistin per disk, 24 h at 37 °C; Gram-positive negative control
Experimental: as §1

[6] = test system: E. coli; assay: Agar broth dilution testing for MIC50 (turbidity); assay type: cell-based, Escherichia coli; details: LB liquid media, 0.0-50 μg/mL colistin, 24 h at 37 °C, McFarland turbidity, duplicate, sigmoid fit; all concentrations below the CMC
Experimental: as §1

[7] = molecular target: T1, proteinase K (Parengyodontium album, UniProt P06873); assay: Enzymatic breakdown susceptibility, SAXS read-out; assay type: in vitro ADME; details: 24 h at 37 °C
T1 construct: purchased Sigma Aldrich
T1 sequence (P06873 106-384): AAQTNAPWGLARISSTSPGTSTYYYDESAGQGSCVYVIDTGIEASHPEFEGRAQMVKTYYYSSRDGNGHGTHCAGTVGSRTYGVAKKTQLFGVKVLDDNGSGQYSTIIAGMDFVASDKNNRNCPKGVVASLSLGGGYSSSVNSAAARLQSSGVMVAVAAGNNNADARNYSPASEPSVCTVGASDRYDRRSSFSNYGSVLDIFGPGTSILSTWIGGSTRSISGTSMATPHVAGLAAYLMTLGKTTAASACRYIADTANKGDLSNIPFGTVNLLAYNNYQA
Experimental: (§3) The enzymatic breakdown susceptibility was analyzed by adding proteinase K (3.4.21.64; Sigma Aldrich), subtilisin (3.4.21.62; Sigma Aldrich), and trypsin (3.4.21.4; Sigma Aldrich) to either colistin (at 3.4 mg/mL) or C3Ms at f+ = 0.50 (total concentration 5.0 mg/mL) at their suppliers’ recommended concentration/ratio for optimized breakdown (molar ratios of enzyme:colistin ≈ 1:130 for proteinase K, ≈ 1:70 for subtilisin and ≈ 1:180 for trypsin). We assessed the difference in susceptibility between noncomplexed colistin and C3Ms. Colistin solution was incubated with enzymes for 24 h at 37 °C, after which polymer solution (kept 24 h at 37 °C) was added while in the other case, premade C3Ms were incubated with enzymes for 24 h at 37 °C. These samples were analyzed using SAXS and modeled, including enzyme scattering (using the Debye form factor since the scattering was too small to use a prolate/oblate ellipsoid form factor, eq 8) to monitor the molecular weight of the complex coacervates after exposure to enzyme degradation.

[8] = molecular target: T2, subtilisin (Bacillus licheniformis, UniProt P00780); assay: Enzymatic breakdown susceptibility, SAXS read-out; assay type: in vitro ADME; details: 24 h at 37 °C
T2 construct: purchased Sigma Aldrich
T2 sequence (P00780 106-379): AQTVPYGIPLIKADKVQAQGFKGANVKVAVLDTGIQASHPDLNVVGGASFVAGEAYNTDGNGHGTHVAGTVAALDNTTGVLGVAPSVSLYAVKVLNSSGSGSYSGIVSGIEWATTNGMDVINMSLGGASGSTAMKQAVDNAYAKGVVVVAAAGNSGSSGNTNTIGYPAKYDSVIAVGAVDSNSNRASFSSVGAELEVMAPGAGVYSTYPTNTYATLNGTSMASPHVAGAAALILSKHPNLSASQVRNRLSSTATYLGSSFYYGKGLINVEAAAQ
Experimental: as §3

[9] = test system: Human embryonic kidney (HEK 293 cells); assay: Toxicity assay (LDH activity, caspase-3 level in medium); assay type: cell-based
Experimental: (§2) Human embryonic kidney (HEK 293 cells) (ATCC, CRL-1573) were cultured in Dulbecco’s modified Eagle medium (DMEM), low glucose (Sigma Aldrich) supplemented with 100 U/mL penicillin and 100 μg/mL streptomycin (15140-122; Gibco, Waltham), 1% GlutaMAX (35050; Gibco), and 20% fetal bovine serum (F9665; Sigma Aldrich). Mesenchymal stem cells (MSC, PT-2501; Lonza) were cultured in Mesenchymal Stem Cell Basel Medium (PT-3238; Lonza)) supplemented with MSCGM SingleQuots (PT-4105; Lonza). Human gingival keratinocytes (HGK) (PCS-200-014; ATCC) were cultured in Dermal Cell Basal Medium (PCS-200-030; ATCC) supplemented with Keratinocytes Growth Kit (PCS-200-040; ATCC). Human umbilical cord endothelial cells (HUVEC, 200p-05n; Cell Applications) were cultured in Endothelial Cell Growth Medium (211-500; Cell Applications). The cell types were seeded in 12-well culture-treated plates at a density of 4 × 10^4 cells/cm^2. Upon confluency (set at time point 0), the cells were exposed to cell-specific growth medium containing formulations with a concentration of 1.0 mg/mL total concentration (0.7 mg/mL colistin) of f+ = 0.50 C3Ms or equivalent concentrations of colistin, and polymer as a control. The medium was changed for both control cells and stimulated cells every two days, 24 h before the harvest of the medium to ensure the same window of accumulated cell-secreted factors in the media. Cytotoxicity assays on lactate dehydrogenase (LDH) activity and caspase-3 level were performed at 24, 48, and 72 h and executed in triplicate. LDH activity in the cell culture media was evaluated using a cytotoxicity detection kit (11644793001; Roche). In short, 50 μL of the collected supernatant was mixed with 50 μL of the reaction mixture and incubated in a dark room at room temperature for 30 min.

[10] = test system: Human gingival keratinocytes (HGK); assay: as above; assay type: cell-based; details: 24 h; 0.7 mg/mL colistin
Experimental: as §2

[11] = test system: Mesenchymal stem cells (MSC); assay: as above; assay type: cell-based, human; details: 24 h, 0.7 mg/mL colistin
Experimental: as §2, with “The medium was changed for both control cells and stimulated cells every two days, 24 h before the harvest of the medium to ensure the same window of accumulated cell-secreted factors in the media. Cytotoxicity assays on lactate dehydrogenase (LDH) activity and caspase-3 level were performed at 24, 48, and 72 h and executed in triplicate.” left out, “In short, 50 μL of the collected supernatant was mixed with 50 μL of the reaction mixture and incubated in a dark room at room temperature for 30 min.” left out

[12] = test system: trypsin; assay: Enzymatic breakdown susceptibility, SAXS read-out; details: 24 h at 37 °C, enzyme:colistin ≈ 1:180
Experimental: as §3

## colistin sulfate
[1]
  inhibition zone, result in words: immeasurable small inhibition zones
[2]
  size of inhibition zone (ΔR): 1.9 ± 0.1 mm
[3]
  inhibition zone, result in words: not visibly affected
[4]
  inhibition zone, result in words: grew back over the inhibition zones
[5]
  inhibition zone, result in words: no inhibition zones could be observed
[6]
  MIC50: 1.5 ± 0.1 µg/mL
[7]; enzyme:colistin ≈ 1:130, colistin 3.4 mg/mL digested then complexed with polymer (without C3M protection) or premade C3Ms 5.0 mg/mL digested (with C3M protection), SAXS fit
  Mw of complex coacervates after proteinase K degradation: 0.13 MDa
[7]; versus untreated C3Ms
  factor of reduction of average Mw of complex coacervates by proteinase K: ≈ 20
[8]; enzyme:colistin ≈ 1:70, colistin 3.4 mg/mL digested then complexed with polymer (without C3M protection) or premade C3Ms 5.0 mg/mL digested (with C3M protection), SAXS fit
  Mw of complex coacervates after subtilisin degradation: 0.042 MDa
[8]; versus untreated C3Ms
  factor of reduction of Mw of complex coacervates by subtilisin: ≈ 50
[9]; 24, 48, 72 h, 0.7 mg/mL colistin
  LDH activity versus control: no significant differences
[9]; day one (24 h), 0.7 mg/mL colistin (1.0 mg/mL total for C3Ms), mean of 3
  caspase-3 level, fold change of control: up to 3 fold
[10]
  LDH (necrosis), result in words: caused necrosis (LDH)
  caspase-3 (apoptosis), result in words: apoptosis (caspase-3)
[11]
  caspase-3 level versus control: no significant difference
[11]; mean of 3
  LDH activity, fold change of control: 2 fold
[12]
  breakdown by trypsin, result in words: ineffective in breaking down colistin
